Among the data in patent US10683292B2, “Purine and 3-deazapurine analogues as choline kinase inhibitors” (NERVIANO MEDICAL SCIENCES S.R.L., priority 2016, dated 2020) are IC50 values, retold here.

Structures can show the parent of a compound that is named as a salt.

One assay deals with T1, hChoKβ FL (Homo sapiens, UniProt Q9Y259).
T1 construct: hChoKβ full length (FL), corresponding to aminoacids 2-395; GST (N, cleaved yes); Prescission Protease recognition site (N, cleaved yes); made in house; host or cells: Escherichia coli BL21pLysS (DE3)
Nature of the assay: Biochemical kinase inhibition assay (Kinase-Glo Luminescent Kinase Assay) on hChoKβ FL. Particulars: ATP 5 μM, choline 20 μM, 60 minutes at rt; read-out: IC50 ChoKβ. In general terms: Kinase-Glo measures the ATP left after a reaction by luminescence.

The next assay deals with T2, Δ49N-hChoKα (Homo sapiens, UniProt P35790).
T2 construct: cDNA fragment 362-1534, corresponding to aminoacids 50-457; GST (N, cleaved yes); Prescission Protease recognition site (N, cleaved yes); made in house; host or cells: Escherichia coli BL21pLysS (DE3)
In words: Biochemical kinase inhibition assay (Kinase-Glo Luminescent Kinase Assay) on Δ49N-hChoKα. Particulars: ATP 5 μM, choline 5 μM, 60 minutes at rt; read-out: IC50 ChoKα.

T2 sequence (P35790 50-457, stated change not applied): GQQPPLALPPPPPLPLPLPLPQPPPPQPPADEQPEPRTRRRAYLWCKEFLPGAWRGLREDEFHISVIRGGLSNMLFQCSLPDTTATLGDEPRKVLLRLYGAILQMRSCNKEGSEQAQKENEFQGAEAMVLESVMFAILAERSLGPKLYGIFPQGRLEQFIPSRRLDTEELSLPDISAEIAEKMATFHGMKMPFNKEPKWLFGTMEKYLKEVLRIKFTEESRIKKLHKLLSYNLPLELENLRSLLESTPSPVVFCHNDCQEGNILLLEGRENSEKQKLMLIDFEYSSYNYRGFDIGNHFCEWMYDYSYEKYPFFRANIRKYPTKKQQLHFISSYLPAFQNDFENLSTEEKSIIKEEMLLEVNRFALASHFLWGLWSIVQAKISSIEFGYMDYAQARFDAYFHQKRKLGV
T1 sequence (Q9Y259 2-395): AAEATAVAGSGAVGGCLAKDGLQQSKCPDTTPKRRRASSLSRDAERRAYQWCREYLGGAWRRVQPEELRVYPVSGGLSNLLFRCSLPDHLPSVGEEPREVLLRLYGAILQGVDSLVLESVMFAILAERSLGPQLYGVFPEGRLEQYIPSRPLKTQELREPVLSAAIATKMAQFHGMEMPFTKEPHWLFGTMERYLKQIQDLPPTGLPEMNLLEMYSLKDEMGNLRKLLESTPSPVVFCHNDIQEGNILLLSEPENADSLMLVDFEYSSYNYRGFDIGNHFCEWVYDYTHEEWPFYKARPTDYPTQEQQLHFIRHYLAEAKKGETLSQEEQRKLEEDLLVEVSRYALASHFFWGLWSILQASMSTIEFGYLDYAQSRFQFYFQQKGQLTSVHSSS
Protocol for hChoKβ FL: (§1) The biochemical activity of compounds against Δ49N-ChoKα and ChoKβ FL were determined using the Kinase-Glo™ Luminescent Kinase Assay (Promega cat. V6711).
(§2) Compounds were 3-fold serially diluted from 10 to 0.0005 μM, then incubated for 60 minutes at rt in the presence of ATP 5 μM, choline (5 μM for ChoKα and 20 μM for ChoKβ) and enzyme in a final volume of 19 μL of kinase buffer (50 mM Hepes pH 7.5, 10 mM MgCl2, 1 mM DTT, 3 μM Na3VO4 and 0.2 mg/mL BSA). The final concentration of DMSO was 1%.
(§3) At the end of the incubation, an amount of 19 μL of KinaseGlo Reagent was added to each well to stop the reaction and after 30 minutes the luminescence signal was measured using ViewLux reader (Perkin Elmer).
(§4) The data per each molecule are analyzed by an internally customized version of the SW package “Assay Explorer” which provides sigmoidal fittings of the ten-dilution curves for IC50 determination using a 4 parameter logistic equation: y=bottom+(top−bottom)/(1+10^((log IC50−x)*slope)) where x is the logarithm of the inhibitor concentration, y is the response; y starts at bottom and goes to top with a sigmoid shape.
Protocol for Δ49N-hChoKα: as §1, §2, §3, §4

In general, IC50 refers to the concentration needed to halve the response being measured. On to `Cc1csc(NC(=O)[C@H]2CC[C@H](n3cnc4c(N)nc(-c5cc[nH]n5)nc43)CC2)n1` [cpd 113, trans-4-[6-amino-2-(1H-pyrazol-3-yl)-9H-purin-9-yl]-N-(4-methyl-1,3-thiazol-2-yl)cyclohexanecarboxamide], for which the results for the IC50 on hChoKβ FL and on Δ49N-hChoKα were above 10000 nM and 613 nM, respectively.

`Nc1nc(Cl)nc2c1ncn2[C@H]1CC[C@@H](C(=O)Nc2nc3cc(F)c(F)c(F)c3s2)CC1` [cpd 171, cis-4-(6-amino-2-chloro-9H-purin-9-yl)-N-(5,6,7-trifluoro-1,3-benzothiazol-2-yl)cyclohexanecarboxamide]: the IC50 on hChoKβ FL came to 5800 nM; at Δ49N-hChoKα, 105 nM.

As for `COc1cccc(NC(=O)N[C@H]2CC[C@@H](n3cnc4c(N)nc(Cl)nc43)CC2)c1` [cpd 197, 1-[cis-4-(6-amino-2-chloro-9H-purin-9-yl)cyclohexyl]-3-(3-methoxyphenyl)urea], the results for the IC50 on hChoKβ FL and at Δ49N-hChoKα were 6090 nM and 306 nM, respectively.

As for `Nc1nc(F)nc2c1ncn2[C@H]1CC[C@@H](C(=O)Nc2nc3c(s2)CC(F)(F)CC3)CC1` [cpd 191, cis-4-(6-amino-2-fluoro-9H-purin-9-yl)-N-(6,6-difluoro-4,5,6,7-tetrahydro-1,3-benzothiazol-2-yl)cyclohexanecarboxamide], the IC50 was above 10000 nM on hChoKβ FL and 11 nM on Δ49N-hChoKα.

With `Cc1csc(NC(=O)[C@H]2CC[C@@H](n3cnc4c(N)nc(C#C[Si](C)(C)C)nc43)CC2)n1` [cpd 98, cis-4-{6-amino-2-[(trimethylsilyl)ethynyl]-9H-purin-9-yl}-N-(4-methyl-1,3-thiazol-2-yl)cyclohexanecarboxamide], the IC50 on hChoKβ FL was above 10000 nM; at Δ49N-hChoKα it was 120 nM.

As to `Nc1nc(Cl)nc2c1ncn2[C@H]1CC[C@@H](C(=O)Nc2nc3ccncc3s2)CC1` [cpd 138, cis-4-(6-amino-2-chloro-9H-purin-9-yl)-N-([1,3]thiazolo[5,4-c]pyridin-2-yl)cyclohexanecarboxamide hydrochloride], the values for the IC50 at hChoKβ FL and on Δ49N-hChoKα were above 10000 nM and 97 nM, respectively.

For `Nc1nc(Cl)nc2c1ncn2[C@H]1CC[C@@H](C(N)=O)CC1` [cpd 53, cis-4-(6-amino-2-chloro-9H-purin-9-yl)cyclohexanecarboxamide], the figures for the IC50 on hChoKβ FL and on Δ49N-hChoKα were above 10000 nM and 855 nM, respectively.

As to `Cc1csc(NC(=O)[C@H]2CC[C@@H](n3cnc4c(N)nc(-c5cccc(O)c5)nc43)CC2)n1` [cpd 103, cis-4-[6-amino-2-(3-hydroxyphenyl)-9H-purin-9-yl]-N-(4-methyl-1,3-thiazol-2-yl)cyclohexanecarboxamide], the IC50 at hChoKβ FL was above 10000 nM; on Δ49N-hChoKα it was 176 nM.

As to `Nc1nc(Cl)nc2c1ncn2[C@H]1CC[C@@H](C(=O)Nc2nc3cc4c(cc3s2)OCO4)CC1` [cpd 186, cis-4-(6-amino-2-chloro-9H-purin-9-yl)-N-([1,3]dioxolo[4,5-f][1,3]benzothiazol-6-yl)cyclohexanecarboxamide], the IC50 at hChoKβ FL worked out at 5470 nM; at Δ49N-hChoKα, 43 nM.

Turning to `Nc1nc(Cl)nc2c1ncn2[C@H]1CC[C@@H](C(=O)Nc2ccc(C(=O)NC3CCCCC3)cc2)CC1` [cpd 71, 4-({[cis-4-(6-amino-2-chloro-9H-purin-9-yl)cyclohexyl]carbonyl}amino)-N-cyclohexylbenzamide], the values for the IC50 on hChoKβ FL and on Δ49N-hChoKα were 2840 nM and 375 nM, respectively.

`Cc1cccc(NC(=O)[C@H]2CC[C@@H](n3cnc4c(N)nc(Cl)nc43)CC2)c1` [cpd 48, cis-4-(6-amino-2-chloro-9H-purin-9-yl)-N-(3-methylphenyl)cyclohexanecarboxamide]: the values for the IC50 at hChoKβ FL and on Δ49N-hChoKα were above 10000 nM and 283 nM, respectively.

`Nc1nc(Cl)nc2c1ncn2[C@H]1CC[C@@H](C(=O)Nc2nc3ccc(CC(=O)O)cc3s2)CC1` [cpd 176, [2-({[cis-4-(6-amino-2-chloro-9H-purin-9-yl)cyclohexyl]carbonyl}amino)-1,3-benzothiazol-6-yl]acetic acid]: the IC50 on hChoKβ FL came to 4020 nM; on Δ49N-hChoKα, 34 nM.

Regarding `Nc1nc(Cl)nc2c1ncn2[C@H]1CC[C@@H](C(=O)Nc2nc3c(s2)CCCC3)CC1` [cpd 205, cis-4-(6-amino-2-chloro-9H-purin-9-yl)-N-(4,5,6,7-tetrahydro-1,3-benzothiazol-2-yl)cyclohexanecarboxamide], the IC50 at hChoKβ FL was found to be 5200 nM; on Δ49N-hChoKα, 15 nM.

For `Nc1nc2ccc(OC(=O)[C@H]3CC[C@@H](n4cnc5c(N)nc(Cl)nc54)CC3)cc2s1` [cpd 159, 2-amino-1,3-benzothiazol-6-yl cis-4-(6-amino-2-chloro-9H-purin-9-yl)cyclohexanecarboxylate], the concentration for half-maximal inhibition (IC50) on hChoKβ FL worked out at 7040 nM; on Δ49N-hChoKα, 65 nM.

On to `Nc1nc(Cl)nc2c1ncn2[C@H]1CC[C@@H](C(=O)Nc2nc3c(s2)CC(F)(F)CC3)CC1` [cpd 188, cis-4-(6-amino-2-chloro-9H-purin-9-yl)-N-(6,6-difluoro-4,5,6,7-tetrahydro-1,3-benzothiazol-2-yl)cyclohexanecarboxamide], for which the IC50 on hChoKβ FL is above 10000 nM; on Δ49N-hChoKα, 9 nM.

With `Nc1nc2c(OC(=O)[C@H]3CC[C@@H](n4cnc5c(N)nc(F)nc54)CC3)cccc2s1` [cpd 160, 2-amino-1,3-benzothiazol-4-yl cis-4-(6-amino-2-fluoro-9H-purin-9-yl)cyclohexanecarboxylate], the IC50 on hChoKβ FL was above 10000 nM; on Δ49N-hChoKα it was 197 nM.

For `C#Cc1nc(N)c2ncn([C@H]3CC[C@@H](C(=O)Nc4nc5c(OC)cccc5s4)CC3)c2n1` [cpd 119, cis-4-(6-amino-2-ethynyl-9H-purin-9-yl)-N-(4-methoxy-1,3-benzothiazol-2-yl)cyclohexanecarboxamide], the results for the half-inhibitory concentration (IC50) at hChoKβ FL and at Δ49N-hChoKα were 7700 nM and 21 nM, respectively.

Turning to `CN1CCN(Cc2ccc(NC(=O)Cc3ccc(NC(=O)[C@H]4CC[C@@H](n5cnc6c(N)nc(Cl)nc65)CC4)cc3)cc2)CC1` [cpd 36, cis-4-(6-amino-2-chloro-9H-purin-9-yl)-N-{4-[2-({4-[(4-methylpiperazin-1-yl)methyl]phenyl}amino)-2-oxoethyl]phenyl}cyclohexanecarboxamide], the IC50 turned out to be 1350 nM on hChoKβ FL and 53 nM at Δ49N-hChoKα.

For the molecule `Nc1nc(F)nc2c1ncn2[C@H]1CC[C@@H](C(=O)Nc2nc3c(O)cccc3s2)CC1` [cpd 127, cis-4-(6-amino-2-fluoro-9H-purin-9-yl)-N-(4-hydroxy-1,3-benzothiazol-2-yl)cyclohexanecarboxamide], the IC50 at hChoKβ FL is above 10000 nM; at Δ49N-hChoKα, 45 nM.

For the molecule `Nc1nc(Cl)nc2c1ncn2[C@H]1CC[C@@H](C(=O)Nc2nccs2)CC1` [cpd 72, cis-4-(6-amino-2-chloro-9H-purin-9-yl)-N-(1,3-thiazol-2-yl)cyclohexanecarboxamide], the IC50 on hChoKβ FL was above 10000 nM; at Δ49N-hChoKα it was 61 nM.

As for `Cc1csc(NC(=O)[C@H]2CC[C@H](n3cnc4c(N)nc(-c5cccc(C(N)=O)c5)nc43)CC2)n1` [cpd 97, 3-(6-amino-9-{trans-4-[(4-methyl-1,3-thiazol-2-yl)carbamoyl]cyclohexyl}-9H-purin-2-yl)benzamide], the IC50 was above 10000 nM on hChoKβ FL and 478 nM on Δ49N-hChoKα.

In the case of `CN1CCc2nc(NC(=O)[C@H]3CC[C@@H](n4cnc5c(N)nc(I)nc54)CC3)sc2C1` [cpd 198, cis-4-(6-amino-2-iodo-9H-purin-9-yl)-N-(5-methyl-4,5,6,7-tetrahydro[1,3]thiazolo[5,4-c]pyridin-2-yl)cyclohexanecarboxamide], the IC50 at hChoKβ FL was above 10000 nM; at Δ49N-hChoKα, 33 nM.

Consider `CN1CCN(Cc2ccc(NC(=O)Cc3ccc(NC(=O)[C@H]4CC[C@@H](n5cnc6c(N)nc(Cl)nc65)CC4)cc3)cc2C(F)(F)F)CC1` [cpd 35, cis-4-(6-amino-2-chloro-9H-purin-9-yl)-N-{4-[2-({4-[(4-methylpiperazin-1-yl)methyl]-3-(trifluoromethyl)phenyl}amino)-2-oxoethyl]phenyl}cyclohexanecarboxamide], for which the half-maximal inhibitory concentration (IC50) at hChoKβ FL turned out to be 430 nM; on Δ49N-hChoKα, 13 nM.

As to `Nc1nc(Cl)nc2c1ncn2[C@H]1CC[C@@H](C(=O)Nc2nc3ccc(OC(F)F)cc3s2)CC1` [cpd 180, cis-4-(6-amino-2-chloro-9H-purin-9-yl)-N-[6-(difluoromethoxy)-1,3-benzothiazol-2-yl]cyclohexanecarboxamide], the results for the IC50 on hChoKβ FL and at Δ49N-hChoKα were 6800 nM and 23 nM, respectively.

For `C#Cc1nc(N)c2ncn([C@H]3CC[C@@H](C(=O)Nc4nc5c(s4)CN(C)CC5)CC3)c2n1` [cpd 201, cis-4-(6-amino-2-ethynyl-9H-purin-9-yl)-N-(5-methyl-4,5,6,7-tetrahydro[1,3]thiazolo[5,4-c]pyridin-2-yl)cyclohexanecarboxamide], the results for the IC50 at hChoKβ FL and at Δ49N-hChoKα were above 10000 nM and 19 nM, respectively.

As to `COc1nc(N)c2ncn([C@H]3CC[C@@H](C(=O)Nc4nc(C)cs4)CC3)c2n1` [cpd 84, cis-4-(6-amino-2-methoxy-9H-purin-9-yl)-N-(4-methyl-1,3-thiazol-2-yl)cyclohexanecarboxamide], the IC50 on hChoKβ FL is above 10000 nM; on Δ49N-hChoKα, 86 nM.

As for `Nc1nc(Cl)nc2c1ncn2[C@H]1CC[C@@H](C(=O)Nc2nc3ccc(OC(F)(F)F)cc3s2)CC1` [cpd 181, cis-4-(6-amino-2-chloro-9H-purin-9-yl)-N-[6-(trifluoromethoxy)-1,3-benzothiazol-2-yl]cyclohexanecarboxamide], the IC50 on hChoKβ FL was above 10000 nM; on Δ49N-hChoKα, 66 nM.

Regarding `Cc1csc(NC(=O)[C@H]2CC[C@@H](n3cnc4c(N)nc(-c5ccncc5)nc43)CC2)n1` [cpd 81, cis-4-[6-amino-2-(pyridin-4-yl)-9H-purin-9-yl]-N-(4-methyl-1,3-thiazol-2-yl)cyclohexanecarboxamide], the IC50 is above 10000 nM at hChoKβ FL and 125 nM at Δ49N-hChoKα.
